For data set [1] the following is noted: in water; cited from earlier work.
A short description of data set [2]: Optical characteristics / pH profile of Si-Rhodol (Compound 7). Format: physicochemical. On the procedure: The pH profile of the absorbance and fluorescence spectra of Si-Rhodol (Compound 7) was examined. Measurement was carried out at various pH in 0.1M sodium phosphate solution containing 1% DMSO. The excitation wavelengths were 507 nm (FIG. 13) and 584 nm (FIG. 14).

Data set [3] can be described thus: Optical characteristics / pH profile of N-AcSi-Rhodol (Compound 9). Format: physicochemical. As to the method: Measurement was carried out at various pH in 0.1M sodium phosphate solution containing 10% DMSO. The excitation wavelength was 503 nm.
The nature of data set [4]: Optical characteristics of Compound 5 in pH 7.4 sodium phosphate. Format: physicochemical. The note with it: 0.1 sodium phosphate pH 7.4, 0.3% DMSO. As to the method:
The fluorescence wavelength was 665 nm and the wavelength of the excitation light was 637 nm. The measurement was carried out in an aqueous solution of 0.1 sodium phosphate having a pH 7.4 and containing 0.3% DMSO. Cy 5.5 (ΦFl=0.23) in water was used as the fluorescence reference to determine the fluorescence quantum yield.

The nature of data set [5]: Fluorescence quantum yield of Compound 5 in various solvents. It is filed as physicochemical.
Data set [6] is described as follows: Optical characteristics of dyes in phosphate buffered saline of pH 7.4. Format: physicochemical.
A short description of data set [7]: Optical characteristics / pH profile of O-Me-Si-Rhodol (Compound 8). Format: physicochemical. As to the method:
The pH profile of the absorbance and fluorescence spectra of O-Me-Si-Rhodol (Compound 8) was examined. Measurement was carried out at various pH levels in 0.1M sodium phosphate solution containing 10% DMSO. The excitation wavelength was 503 nm.

A short description of data set [8]: Absorbance and fluorescence profiles of Compounds 1-4 in pH 7.4 sodium phosphate. It is filed as physicochemical. The note with it: pH 7.4 sodium phosphate buffer solution; for Absmax / Emmax / ε: 0.1% DMSO; for Φfl: cresyl violet in methanol as fluorescence reference. On the procedure: Absorbance and fluorescence profiles of 2-MeSiR620 (Compound 1) obtained in step (f) and 2-MeSiR620-a1 (Compound 2) obtained in step (i) were measured. Measurements were carried out in an aqueous solution of 0.1M sodium phosphate having a pH 7.4 and containing 0.1% DMSO. The wavelength of the excitation light in the fluorescence profile measurement was 620 nm for 2-MeSiR620 and 635 nm for 2-MeSiR620-a1.
The absorbance and fluorescence spectra of 2-MeSiR630 (Compound 3) synthesized in step (b) and 2-MeSiR630-a1 (Compound 4) synthesized in step (d) were measured. Measurements were carried out in an aqueous solution of 0.1 sodium phosphate having a pH 7.4 and containing 0.1% DMSO. The excitation light in the fluorescence spectrum measurement was 633 nm for 2-MeSiR630 and 648 nm for 2-MeSiR630-a1.

In another data set the test system is rat liver microsomes. Kind of data set: In vitro experiment using rat liver microsomes (hypoxia vs normal oxygen). Format: biochemical. As to conditions: 1 μM compound, 226 μg rat liver microsomes, 50 μM NADPH; ex 640 nm, em 660 nm. From the text: The excitation wavelength was 640 nm and the fluorescence wavelength was 660 nm. In FIG. 26, Hyp is the measurement result for hypoxia and Nor is the measurement result for normal oxygen level.
On the technique in general: Microsomes from liver hold many membrane-bound enzymes, among them those of drug oxidation.

The conditions of data set [9]: in methanol; cited from earlier work.
Data set [10] can be described thus: Absorbance and fluorescence of Compound 6 in various solvents. Format: physicochemical. On the procedure: Next, the absorbance and fluorescence spectra of Ac-IndoSiR (Compound 6) in various solvents were measured. […] The excitation wavelength was 540 nm. The maximum absorbance fluorescence wavelength, molar absorbance coefficient, and fluorescence quantum yield of Compound 6 in various solvents are shown in Table 5. The fluorescence quantum yield (ΦFl=0.44; determined using an absolute fluorescence quantum yield measurement device) of Compound 6 in chloroform was used as the fluorescence reference to determine the fluorescence quantum yield in various solvents.

Where [11] appears, read: 0.1M sodium phosphate, 10% DMSO.
The mark [12] stands for this setting: 0.1M sodium phosphate, 10% DMSO, excitation 503 nm.

Some results are limits rather than exact numbers.

`CCN1\C(=C/C=C/C=C/C2=[N+](CCCCCC(=O)O)c3ccc4c(S(=O)(=O)O)cc(S(=O)(=O)O)cc4c3C2(C)C)C(C)(C)c2c1ccc1c(S(=O)(=O)[O-])cc(S(=O)(=O)O)cc21` [Cy 5.5]: the “ΦFl of fluorescence reference” value in data set [1] is on record as 0.23.
As for `Cc1ccccc1C1=C2C=CC(=O)C=C2[Si](C)(C)c2cc(N)ccc21` [Compound 7, Si-Rhodol], in data set [2] (0.1M sodium phosphate, 1% DMSO), the ε is on record as 40,000 M^−1cm^−1. The molecule further registered a λem in data set [2] (0.1M sodium phosphate, 1% DMSO) of 605 nm. In data set [2] (FIG. 14, excitation wavelength 584 nm), the “absorption maximum (FIG. 14)” value is recorded as about 600 nm. Also, the Φfl in data set [2] (pH: 3.0) is reported as 0.28 (pH: 3.0); in [2] (pH: 7.4), 0.56 (pH: 7.4). For the same molecule, the λabs is recorded as 507 (pH: 3.0) nm in data set [2] (pH: 3.0); 584 (pH: 7.4) nm in [2] (pH: 7.4); about 580 nm in [2] (pH: 7.4, listed as Si-Rhodol).
On to `CC(=O)Nc1ccc2c(c1)[Si](C)(C)C1=CC(=O)C=CC1=C2c1ccccc1C` [Compound 9, N-AcSi-Rhodol], for which the λabs in data set [3] (setting [11]) is listed as 455 nm; in [3] (0.1M sodium phosphate, 10% DMSO, listed as N-AcSi-Rhodol), about 450 nm. Besides, in data set [3] (setting [12]), the λem is 590 nm. In data set [3] (pH: 7.4), the ΦFL is 0.17 (pH: 7.4). Besides, the ε in [3] (pH: 10.0) is reported as 7000 (pH: 10.0) M^−1cm^−1.
The molecule `Cc1ccccc1C1=c2cc3c(cc2[Si](C)(C)c2cc(N)ccc21)=[N+](C)CC3` [Compound 5, 2MeIndoSiR] showed a ε in [4] of 54000 M⁻¹ cm⁻¹. The molecule further returned a λem in data set [4] of 665 nm. Further, in [4], the λex stood at 641 nm. Moreover, the Φfl in [4] (Cy 5.5 in water as reference) is 0.18. Besides, the “Fluorescence quantum yield ΦF1” value worked out at 0.36 in data set [5] (20% FBS); 0.39 in data set [5] (Acetone); 0.42 in data set [5] (CH3CN); 0.89 in data set [5] (CHCl3); 0.39 in [5] (DMF); 0.35 in data set [5] (DMSO). Further, the figures for the “Fluorescence quantum yield ΦF1” value in [5] (FBS) and in data set [5] (MeOH) were 0.35 and 0.46, respectively. For the same molecule, in data set [6], the “Φn (absolute fluorescence quantum yield measured using integrating spheres)” value stood at 0.14. Further, the λabs. max in [6] amounted to 637 nm. This molecule showed a λfl. max in [6] of 664 nm.
As to `COc1ccc2c(c1)[Si](C)(C)C1=CC(=N)C=CC1=C2c1ccccc1C` [Compound 8, O-MeSi-Rhodol], the λabs in [7] (setting [11]) is 503 nm; in data set [7] (0.1M sodium phosphate, 10% DMSO, listed as O-MeSi-Rhodol) it was about 500 nm. Moreover, in [7] (setting [12]), the λem came to 580 nm. In addition, the “absorption maximum (FIG. 16)” value in [7] (FIG. 16) is listed as about 600 nm. Also, the values for the ΦFL in data set [7] (pH: 3.0) and in data set [7] (pH: 7.4) were 0.24 (pH: 3.0) and 0.18 (pH: 7.4), respectively.
Turning to `CNc1ccc2c(c1)[Si](C)(C)C1=CC(=[N+](C)C)C=CC1=C2c1ccccc1C` [Compound 3, 2-MeSiR630], in data set [8], the Absmax is 633 nm, the Emmax turned out to be 649 nm, the ε is reported as 120,000 M^−1cm^−1 and the Φfl stood at 0.11.
Take `Cc1cccc(C)c1C1=c2cc3c(cc2[Si](C)(C)c2cc(/N=N/c4ccc(N(C)C)cc4)ccc21)=[N+](C)CC3` [Compound 14, diMeazoSiR650]: in [6], the “Φn (absolute fluorescence quantum yield measured using integrating spheres)” value turned out to be 0.002 and the λabs. max was found to be 587 nm. Also, in the data set on rat liver microsomes, the “change in fluorescence intensity in a hypoxic environment” value is “dramatic increase in fluorescence intensity”.
In the case of Cresyl violet, the “Φfl of fluorescence reference” value in [9] is recorded as “^bCresyl violet in methanol (Φfl = 0.54) was used as the fluorescence reference”.
In the case of `Cc1cccc(C)c1C1=c2cc3c(cc2[Si](C)(C)c2cc(N)ccc21)=[N+](C)CC3` [Compound 13, diMeSiR650], in data set [6], the “Φn (absolute fluorescence quantum yield measured using integrating spheres)” value amounted to 0.15, the λabs. max is reported as 637 nm and the λfl. max came to 670 nm.
For 2-MeSiR620 [Compound 1], in [8], the Absmax was found to be 620 nm, the Emmax turned out to be 638 nm, the ε is reported as 96,000 M^−1cm^−1 and the Φfl worked out at 0.21.
With `Cc1ccccc1C1=c2cc3c(cc2[Si](C)(C)c2cc(/N=N/c4ccc(N(C)C)cc4)ccc21)=[N+](C)CC3` [Compound 11, 2MeazoSiR650], in [6], the “Φn (absolute fluorescence quantum yield measured using integrating spheres)” value was under 0.001 and the λabs. max came out at 590 nm. Besides, the “change in fluorescence intensity in a hypoxic environment” value in the data set with rat liver microsomes is given as “dramatic increase in fluorescence intensity”.
On to `Cc1ccccc1C1=C2C=CC(=[N+](C)C)C=C2[Si](C)(C)c2cc(N(C)CCCC(=O)O)ccc21` [Compound 4, 2-MeSiR630-a1], for which, in data set [8], the Absmax is on record as 648 nm, the Emmax turned out to be 666 nm, the ε is listed as 140,000 M^−1cm^−1 and the Φfl is 0.30.
In the case of `CC(=O)Nc1ccc2c(c1)[Si](C)(C)c1cc3c(cc1=C2c1ccccc1C)CC[N+]=3C` [Compound 6, Ac-IndoSiR], the Absmax in data set [10] (Acetone) came out at 532 nm; in [10] (Benzene) it was 644 nm; in data set [10] (CH2Cl2), 552 nm; in data set [10] (CH3CN), 529 nm; in data set [10] (CHCl3) it was 623 nm; in data set [10] (DMF), 536 nm. In addition, the Absmax stood at 534 nm in data set [10] (DMSO); 526 nm in data set [10] (MeOH); 500 nm in data set [10] (NaPi buffer (pH 7.4)); 559 nm in [10] (THF); 644 nm in data set [10] (Toluene). Also, the Emmax in data set [10] (Acetone) came out at 641 nm; in [10] (Benzene), 665 nm; in data set [10] (CH2Cl2), 641 nm; in data set [10] (CH3CN) it was 636 nm; in data set [10] (CHCl3), 652 nm; in [10] (DMF), 645 nm. Also, the Emmax came to 651 nm in [10] (DMSO); 637 nm in data set [10] (MeOH); 630 nm in data set [10] (NaPi buffer (pH 7.4)); 654 nm in data set [10] (THF); 665 nm in data set [10] (Toluene). In addition, the ΦFl is 0.15 in [10] (Acetone); 0.26 in [10] (Benzene); 0.27 in data set [10] (CH2Cl2); 0.16 in [10] (CH3CN); 0.44 in [10] (CHCl3, absolute fluorescence quantum yield measurement device); 0.19 in [10] (DMF). Also, the ΦFl in data set [10] (DMSO) is reported as 0.12; in data set [10] (MeOH) it was 0.10; in [10] (NaPi buffer (pH 7.4)), 0.06; in [10] (THF), 0.18; in data set [10] (Toluene) it was 0.31. The ε in data set [10] (Acetone) is recorded as 27,000 M^−1cm^−1; in data set [10] (Benzene), 34,000 M^−1cm^−1; in data set [10] (CH2Cl2) it was 33,000 M^−1cm^−1; in [10] (CH3CN) it was 29,000 M^−1cm^−1; in data set [10] (CHCl3), 36,000 M^−1cm^−1; in [10] (DMF), 9,000 M^−1cm^−1. The ε in data set [10] (DMSO) is given as 30,000 M^−1cm^−1; in data set [10] (MeOH), 27,000 M^−1cm^−1; in [10] (NaPi buffer (pH 7.4)), 29,000 M^−1cm^−1; in [10] (THF), 21,000 M^−1cm^−1; in data set [10] (Toluene), 32,000 M^−1cm^−1.

These data come from patent US9714260B2, “Asymmetrical Si rhodamine and rhodol synthesis” (THE UNIVERSITY OF TOKYO, priority 2013, dated 2017).
